Reference: US20050101595A1, “N-containing cycloalkyl-substituted amino-thiazole derivatives and pharmaceutical compositions for inhibiting cell proliferation and methods for their use” (PFIZER INC., priority 2003, published 2005)
Where a name gives a salt, the structure may show the parent alone. Read-outs that look alike come from different tables or passages of the source.

Columns and labels:
HCT-116 cell line = experiment: Inhibition of cell growth, tetrazolium salt (MTT) assay; format: cell-based; details: for IC50: Homo sapiens, HCT-116, 120 h, MTT, three to five days, read-out: HCT-116 IC50; for HCT-116 % Inhibition at 0.25 μM: 0.25 μM compound
In short: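 McCoy's 5A cultures; 4 h pre-incubation; compound dilutions in 0.5% v/v DMSO; 3–5 d, 37° C, 5% CO2; MTT 0.2 mg/mL final, 4 h; formazan dissolved in DMSO, A540; vs 0.5% DMSO vehicle.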

[1] = target: human CDK4 and genetically truncated (1-264) cyclin D3 (Homo sapiens, UniProt P11802); experiment: Inhibition of CDK4/Cyclin D Retinoblastoma Kinase Activity; format: biochemical; details: for Ki: apparent Ki, CDK4/truncated cyclin D3, Rb fragment substrate, 25 μM ATP
human CDK4 and genetically truncated (1-264) cyclin D3, sequence (P11802 whole entry, the tested form may be a part): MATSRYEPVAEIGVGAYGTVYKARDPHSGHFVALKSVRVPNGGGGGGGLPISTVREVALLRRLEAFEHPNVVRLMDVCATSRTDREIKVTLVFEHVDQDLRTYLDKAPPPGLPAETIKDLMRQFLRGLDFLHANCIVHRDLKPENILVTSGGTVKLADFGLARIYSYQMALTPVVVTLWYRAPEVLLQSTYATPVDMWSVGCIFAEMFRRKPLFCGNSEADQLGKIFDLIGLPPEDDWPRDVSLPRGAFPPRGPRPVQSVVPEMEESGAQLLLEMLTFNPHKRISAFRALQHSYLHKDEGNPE
human CDK4 and genetically truncated (1-264) cyclin D3, sequence (P30281 1-264 partner): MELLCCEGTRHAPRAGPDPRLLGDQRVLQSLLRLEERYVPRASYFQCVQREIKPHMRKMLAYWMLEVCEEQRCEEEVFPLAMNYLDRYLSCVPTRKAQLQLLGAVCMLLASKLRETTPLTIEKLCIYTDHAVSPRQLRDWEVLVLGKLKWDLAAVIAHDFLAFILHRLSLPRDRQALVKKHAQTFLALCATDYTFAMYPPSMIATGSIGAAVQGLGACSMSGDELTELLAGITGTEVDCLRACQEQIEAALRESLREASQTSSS
In short: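 Apparent Ki values derive from fitting activity at varied inhibitor concentrations to a competitive (or competitive tight-binding) model. Kinase reactions used 5 nM CDK4/cyclin D3(1-264), Rb fragment substrate and 25 μM ATP. Incubation ran 20 min at 30 °C, extended to 60 min under linear conditions for tight binders.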

CDK2/Cyclin A = CDK2/Cyclin A (Homo sapiens, UniProt P24941); experiment: Inhibition of CDK2/Cyclin A Retinoblastoma Kinase Activity; format: biochemical; details: for Ki: apparent Ki, CDK2/proteolyzed cyclin A, Rb fragment substrate, 25 μM ATP; for CDK2 % Inhibition At 0.03 μM: Table 2
In short: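 Percent inhibition is calculated against DMSO-only wells after subtracting no-enzyme background. The enzyme is human CDK2 complexed with proteolyzed cyclin A, used at 10 nM or 19 nM on an Rb fragment with 25 μM [32/33P]ATP, at pH 7.4 and 30° C.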

Structure (SMILES) | HCT-116 % Inhibition at 0.1 μM (HCT-116 cell line; HCT-116 cells, at 0.1 μM) [%] | HCT-116 5 Inhibition at 0.25 μM (HCT-116 cell line; HCT-116 cells) | CDK4 % Inhibition at 0.03 μM ([1]; at 0.03 μM) [%] | CDK2 % Inhibition at 0.03 μM (CDK2/Cyclin A; at 0.03 μM) [%] | IC50 (HCT-116 cell line; first HCT-116 column (c4)) [µM] | IC50 (HCT-116 cell line; second HCT-116 column (c5)) [µM] | Ki [1] [µM] | Ki (CDK2/Cyclin A) [µM] | also measured
Cc1ccc(C)c(C(=O)N2CCC(Nc3nc(N)c(C(=O)c4c(F)cccc4F)s3)CC2)c1 [Example R128] | 0 | 56 | 7 | 14 | – | – | – | – | –
Cc1ccc(C(=O)N2CCC(Nc3nc(N)c(C(=O)c4c(F)cccc4F)s3)CC2)cc1 [Example R154] | 0 | 27 | 63 | 50 | – | – | – | – | –
CN1CCC(Nc2nc(N)c(C(=O)c3c(F)cccc3F)s2)CC1 [Example A4, 1-[4-Amino-2-(1-methyl-piperidin-4-ylamino)-thiazol-5-yl]-1-(2,6-difluoro-phenyl)-methanone] | – | – | – | – | 1.7 | 3.8 | 0.93 | 12 | –
Cc1cc(C)cc(NC(=O)N2CCC(Nc3nc(N)c(C(=O)c4c(F)cccc4F)s3)CC2)c1 [Example O49] | – | – | – | – | – | – | – | – | HCT-116 % Inhibition at 0.25 μM (HCT-116 cell line; HCT-116, Table 2): 20%; CDK4 % Inhibition at 0.03 μM ([1]; 0.03 μM compound, Table 2): −1%; CDK2 % Inhibition At 0.03 μM (CDK2/Cyclin A; 0.03 μM compound): 33%
COc1ccc(C(=O)N2CCC(Nc3nc(N)c(C(=O)c4c(F)cccc4F)s3)CC2)c(OC)c1 [Example R8] | 8 | 41 | 13 | −11 | – | – | – | – | –
Nc1nc(NC2CCN(S(=O)(=O)c3ccc(SCCN4CCOCC4)nc3)CC2)sc1C(=O)c1c(F)cccc1F [Example L7, 1-(4-Amino-2-{1-[6-(2-morpholin-4-yl-ethylsulfanyl)-pyridine-3-sulfonyl]-piperidin-4-ylamino}-thiazol-5-yl)-1-(2,6-difluoro-phenyl)-methanone Dihydrochloride.] | – | – | – | – | 0.095 | 0.3 | 0.0022 | 0.0015 | –
Nc1nc(NC2CCN(S(=O)(=O)c3ccc(-n4ccnc4)nc3)CC2)sc1C(=O)c1c(F)cccc1F [Example G25, 1-{4-Amino-2-[1-(6-imidazol-1-yl-pyridine-3-sulfonyl)-piperidin-4-ylamino]-thiazol-5-yl}-1-(2,6-difluoro-phenyl)-methanone Trifluoroacetic Acid Salt] | – | – | – | – | 0.063 | > 0.5 | 0.00036 | 0.00027 | –
COC(C(=O)N1CCC(Nc2nc(N)c(C(=O)c3c(F)cccc3F)s2)CC1)(c1ccccc1)C(F)(F)F (centres unmarked) [Example R16] | 6 | 41 | 12 | −29 | – | – | – | – | –
Nc1nc(NC2CCN(C(=O)OCc3ccccc3)CC2)sc1C(=O)c1c(F)cccc1F [Example Q6] | – | – | – | – | – | – | – | – | HCT-116 % Inhibition at 0.1 μM (HCT-116 cell line; 0.1 μM compound, HCT-116, Table 4): 9%; HCT-116 % Inhibition at 0.25 μM (HCT-116 cell line; HCT-116, Table 4): 38%; CDK4 % Inhibition at 0.03 μM ([1]; 0.03 μM compound, Table 4): 24%; CDK2 % Inhibition at 0.03 μM (CDK2/Cyclin A; 0.03 μM compound, Table 4): −32%
CCNC(=O)N1CCC(Nc2nc(N)c(C(=O)c3c(F)cccc3F)s2)CC1 [Example O31] | – | – | – | – | – | – | – | – | HCT-116 % Inhibition at 0.25 μM (HCT-116 cell line; HCT-116, Table 2): 37%; CDK4 % Inhibition at 0.03 μM ([1]; 0.03 μM compound, Table 2): 6%; CDK2 % Inhibition At 0.03 μM (CDK2/Cyclin A; 0.03 μM compound): 33%
COC(C(=O)N1CCC(Nc2nc(N)c(C(=O)c3c(F)cccc3F)s2)CC1)(c1ccccc1)C(F)(F)F (centres unmarked) [Example R39] | 5 | 51 | 16 | −6 | – | – | – | – | –
Cc1oc(-c2ccccc2)cc1C(=O)N1CCC(Nc2nc(N)c(C(=O)c3c(F)cccc3F)s2)CC1 [Example R77] | 0 | 44 | 15 | 19 | – | – | – | – | –
N#C/C(=C\c1cccc(O)c1)C(=O)N1CCC(Nc2nc(N)c(C(=O)c3c(F)cccc3F)s2)CC1 [Example D13, 12(Z)-(1-{4-[4-Amino-5-(2,6-difluoro-benzoyl)-thiazol-2-ylamino]-piperidin-1-yl}-methanoyl)-3-(3-hydroxy-phenyl)-acrylonitrile Trifluoroacetic Acid Salt] | – | – | – | – | 1.3 | 5 | 0.0018 | 0.024 | –
